Assay results: patent US20100152434A1, “Protein Kinase-binding Nucleosides and Associated Methods” (priority 2007, published 2010)
Like-named read-outs stand apart in the source and are kept apart here.

Tests used:
RXF 393 = conditions: RXF 393
OVCAR-5 = assay: cells; conditions: Homo sapiens, OVCAR-5, 48 h
CAKI-1 [1] = assay: cells; conditions: Homo sapiens, CAKI-1, 48 h
SF-268 = assay: cells; conditions: Homo sapiens, SF-268, 48 h
SNB-75 [2] = tested on: SNB-75
MDA-MB-435 = assay: cells; conditions: Homo sapiens, MDA-MB-435, 48 h
CAKI-1 [3] = tested on: CAKI-1
DU-145 [4] = assay: cells; conditions: Homo sapiens, DU-145, 48 h
K-562 = assay: cells; conditions: Homo sapiens, K562, 48 h
SNB-75 [5] = assay: cells; conditions: Homo sapiens, SNB-75, 48 h
SF-539 = assay: cells; conditions: Homo sapiens, SF-539, 48 h
DU-145 [6] = tested on: DU-145
HS 578T = assay: cells; conditions: Homo sapiens, 48 h
MOLT-4 = assay: cells; conditions: Homo sapiens, MOLT-4, 48 h
NCI/ADR-RES = assay: cells; conditions: Homo sapiens, 48 h
NCI-H322M = conditions: NCI-H322M
[7] = Log10 Concentration −4.0, Molar
[8] = Log10 Concentration −5.0, Molar
[9] = Log10 Concentration −6.0, Molar
[10] = Log10 Concentration −7.0, Molar
[11] = Log10 Concentration −8.0, Molar

CCOC(=O)C[C@@H]1C(O[Si](C)(C)C(C)(C)C)[C@H](n2cnc3c(NC(=O)Nc4ccccc4)ncnc32)O[C@@H]1CNC(=O)NC (some centres unmarked) [Compound 10]
TGI (RXF 393; 48 h): 4.63E−6 Molar
Percent Growth (RXF 393; [7]): −59%
Percent Growth (RXF 393; [8]): −46%
Percent Growth (RXF 393; [9]): 92%
Percent Growth (RXF 393; [10]): 97%
Percent Growth (RXF 393; [11]): 99%
TGI (COLO 205; 48 h): >1.00E−4 Molar
Percent Growth (COLO 205; [7]): 3%
Percent Growth (COLO 205; [8]): 20%
Percent Growth (COLO 205; [9]): 93%
Percent Growth (COLO 205; [10]): 97%
Percent Growth (COLO 205; [11]): 102%
GI50 (OVCAR-5): 31.1 µM
CC50 (OVCAR-5; read-out: LC50): > 100 µM
TGI (HT29; 48 h): >1.00E−4 Molar
Percent Growth (HT29; [7]): 3%
Percent Growth (HT29; [8]): 17%
Percent Growth (HT29; [9]): 104%
Percent Growth (HT29; [10]): 105%
Percent Growth (HT29; [11]): 104%
GI50 (CAKI-1 [1]): 29.7 µM
CC50 (CAKI-1 [1]; read-out: LC50): > 100 µM
TGI (M14; 48 h): 1.16E−5 Molar
Percent Growth (M14; [7]): −56%
Percent Growth (M14; [8]): 4%
Percent Growth (M14; [9]): 81%
Percent Growth (M14; [10]): 82%
Percent Growth (M14; [11]): 90%
GI50 (SF-268): 6.53 µM
CC50 (SF-268; read-out: LC50): 92.5 µM
TGI (SNB-75 [2]; 48 h): >1.00E−4 Molar
Percent Growth (SNB-75 [2]; [7]): 22%
Percent Growth (SNB-75 [2]; [8]): 32%
Percent Growth (SNB-75 [2]; [9]): 85%
Percent Growth (SNB-75 [2]; [10]): 90%
Percent Growth (SNB-75 [2]; [11]): 92%
GI50 (MDA-MB-435): 6.21 µM
CC50 (MDA-MB-435; read-out: LC50): > 100 µM
TGI (IGROV1; 48 h): 1.80E−5 Molar
Percent Growth (IGROV1; [7]): −58%
Percent Growth (IGROV1; [8]): 20%
Percent Growth (IGROV1; [9]): 93%
Percent Growth (IGROV1; [10]): 94%
Percent Growth (IGROV1; [11]): 94%
Percent Growth (HOP-92; [7]): −61%
Percent Growth (HOP-92; [8]): −32%
Percent Growth (HOP-92; [9]): 12%
Percent Growth (HOP-92; [10]): −1%
Percent Growth (HOP-92; [11]): 4%
TGI (CAKI-1 [3]; 48 h): >1.00E−4 Molar
Percent Growth (CAKI-1 [3]; [7]): 7%
Percent Growth (CAKI-1 [3]; [8]): 88%
Percent Growth (CAKI-1 [3]; [9]): 99%
Percent Growth (CAKI-1 [3]; [10]): 95%
Percent Growth (CAKI-1 [3]; [11]): 88%
TGI (TK-10; 48 h): 4.05E−5 Molar
Percent Growth (TK-10; [7]): −38%
Percent Growth (TK-10; [8]): 59%
Percent Growth (TK-10; [9]): 105%
Percent Growth (TK-10; [10]): 103%
Percent Growth (TK-10; [11]): 98%
GI50 (DU-145 [4]): 4.97 µM
CC50 (DU-145 [4]; read-out: LC50): 78.4 µM
GI50 (K-562): 3.59 µM
CC50 (K-562; read-out: LC50): > 100 µM
GI50 (SNB-75 [5]): 4.56 µM
CC50 (SNB-75 [5]; read-out: LC50): > 100 µM
GI50 (SF-539): 5.19 µM
CC50 (SF-539; read-out: LC50): > 100 µM
Percent Growth (HL-60(TB); [7]): 22%
Percent Growth (HL-60(TB); [8]): −5%
Percent Growth (HL-60(TB); [9]): 101%
Percent Growth (HL-60(TB); [10]): 110%
Percent Growth (HL-60(TB); [11]): 85%
TGI (DU-145 [6]; 48 h): 1.94E−5 Molar
Percent Growth (DU-145 [6]; [7]): −59%
Percent Growth (DU-145 [6]; [8]): 24%
Percent Growth (DU-145 [6]; [9]): 110%
Percent Growth (DU-145 [6]; [10]): 123%
Percent Growth (DU-145 [6]; [11]): 110%
GI50 (HS 578T): 3.6 µM
CC50 (HS 578T; read-out: LC50): > 100 µM
GI50 (MOLT-4): 2.39 µM
CC50 (MOLT-4; read-out: LC50): > 100 µM
GI50 (NCI/ADR-RES): > 100 µM
CC50 (NCI/ADR-RES; read-out: LC50): > 100 µM
TGI (SF-295; 48 h): >1.00E−4 Molar
Percent Growth (SF-295; [7]): 24%
Percent Growth (SF-295; [8]): 38%
Percent Growth (SF-295; [9]): 88%
Percent Growth (SF-295; [10]): 91%
Percent Growth (SF-295; [11]): 91%
TGI (U251; 48 h): 2.09E−5 Molar
Percent Growth (U251; [7]): −61%
Percent Growth (U251; [8]): 28%
Percent Growth (U251; [9]): 94%
Percent Growth (U251; [10]): 95%
Percent Growth (U251; [11]): 98%
TGI (NCI-H322M; 48 h): >1.00E−4 Molar
Percent Growth (NCI-H322M; [7]): 72%
Percent Growth (NCI-H322M; [8]): 89%
Percent Growth (NCI-H322M; [9]): 95%
Percent Growth (NCI-H322M; [10]): 90%
Percent Growth (NCI-H322M; [11]): 105%
TGI (MALME-3M; 48 h): >1.00E−4 Molar
Percent Growth (MALME-3M; [7]): 17%
Percent Growth (MALME-3M; [8]): 50%
Percent Growth (MALME-3M; [9]): 92%
Percent Growth (MALME-3M; [10]): 95%
Percent Growth (MALME-3M; [11]): 104%
